The text below walks through data of PubChem BioAssay (NCI).

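Method: 48-hour compound exposure of cells in 96-well plates, five concentrations, linear interpolation of endpoints. Here, GI50 denotes the concentration required for 50% inhibition of growth. TGI is the concentration that stops growth completely.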

Test in all cases: growth of human tumour cells (NCI), 48 h
In test [1] the test system is SF-539 CNS.
The test system of test [2] is MALME-3M melanoma.
Test [3] deals with MOLT-4 leukemia.
Test [4] relates to SW-620 colon.
Test [5] deals with RPMI-8226 leukemia.
In test [6] the test system is HT29 colon.
In test [7] the test system is HL-60(TB) leukemia.
In test [8] the test system is HCT-116 colon.
The subject of test [9] is HOP-62 NSCLC.

As for `C/C(CCc1ccccc1)=N\NC(N)=S`, the TGI in test [1], in test [2], in test [3], in [4], in [5] and in test [6] was more than 100 µM throughout. The TGI in test [7], in [8] and in [9] was more than 100 µM each time.

Consider `CCOC(=O)c1cc(/C=C/C(C)=C/C(=O)OC)oc1C`, for which the TGI in test [1], in [2], in test [3], in [4], in [5] and in test [6] was more than 100 µM each time. The TGI in [7], in test [8] and in test [9] was more than 100 µM each time.

As for `COC(=O)c1ccccc1NC(=O)C(=O)NNC(=O)c1ccncc1`, the TGI in test [1], in test [2], in test [3], in test [4], in [6] and in [7] was more than 100 µM throughout. Also, the TGI in test [8] and in test [9] was more than 100 µM each time.

Regarding `C[C@]12CCCC(=O)C1(O)C[C@H](C(=O)O)CC2` (stereo partly specified), the TGI in [1], in test [2], in [3], in test [4], in [5] and in [6] was more than 100 µM each time. The TGI in test [7], in [8] and in test [9] was more than 100 µM throughout.

`CCOC(=O)/C=C1\CCCC12OCCO2`: the TGI in test [1], in test [2], in test [3], in test [4], in test [5] and in [7] was more than 100 µM each time. Besides, the TGI in test [8] and in [9] was more than 100 µM each time.

On to `CC[O-].CC[O-].O=S(=O)([O-])c1ccc([O-])c2ncccc12.O=S(=O)([O-])c1ccc([O-])c2ncccc12.[Ti+4]`, for which the GI50 in test [1] was 67.9 µM; in test [2], more than 100 µM; in test [3], 37.2 µM; in [4] it was more than 100 µM; in [5] it was more than 100 µM; in [6], 52.8 µM. For the same compound, the GI50 in test [7] is 40.9 µM; in test [8] it was 41.1 µM; in [9], 44 µM. For the same compound, the TGI in [1], in test [2], in test [3], in [4], in test [5] and in test [6] was more than 100 µM each time. In addition, the TGI in test [7], in [8] and in test [9] was more than 100 µM throughout.

As for `COC1OC(CO)C(O)C1N` (stereo unspecified), the TGI in test [1], in test [2], in [3], in test [4], in test [6] and in [7] was more than 100 µM each time. Besides, the TGI in test [8] and in test [9] was more than 100 µM in each case.

`CCOP(=O)(OCC)OC(C#N)c1ccc(-c2ccccc2)cc1` (stereo unspecified): the TGI in [1] was found to be 38.9 µM; in [2], 41 µM; in [3], 29.9 µM; in test [4], 26.8 µM; in test [5], 45.8 µM; in [6], 34.3 µM. For the same compound, the TGI in test [7] was 36.9 µM; in [8], 28.5 µM; in test [9], more than 100 µM.

As to `Cc1ccccc1C1=C(C(=O)Nc2ccc(Cl)c(Cl)c2)NC(=S)NC1N` (stereo unspecified), the TGI in test [1], in test [2], in test [3], in test [4], in [5] and in [6] was more than 100 µM throughout. Moreover, the TGI in test [8] was more than 100 µM.

Turning to `NC(N)=NCCC1OC(=O)C2=C1c1c(O)ccc3nccc(c13)O2` (stereo unspecified), the GI50 in test [1], in [2], in [3], in test [4], in test [5] and in test [7] was more than 100 µM throughout. The GI50 in [8] and in [9] was more than 100 µM in each case. Moreover, the TGI in test [1], in test [2], in test [3], in [4], in [5] and in test [7] was more than 100 µM each time. Further, the TGI in [8] and in test [9] was more than 100 µM throughout.

For `CN(C)CC1CCC/C1=N\O` (stereo unspecified), the TGI in test [1], in test [3], in test [4], in [5], in [6] and in test [8] was more than 100 µM in each case. In test [9], this compound came in with a TGI of more than 100 µM.

With `Cc1ccc(-c2cc(-c3ccco3)c(C#N)c(=O)n2C2OC(OC(=O)c3ccccc3)C(OC(=O)c3ccccc3)C2OC(=O)c2ccccc2)cc1` (stereo unspecified), the TGI in test [1], in test [2], in test [3], in [4], in test [5] and in [6] was more than 100 µM in each case. The TGI in test [8] and in test [9] was more than 100 µM each time.

In the case of `C/C(=N\N(c1ccccc1)c1ccccc1)c1c(O)cc(C)oc1=O`, the TGI in test [1], in [2], in test [3], in [4], in test [6] and in [8] was more than 100 µM in each case. Also, the TGI in test [9] is more than 100 µM.

On to `COC(=O)C(CC(=O)Nc1ccc(C)cc1)C(=O)C(=O)Nc1ccccc1C(C)C` (stereo unspecified), for which the TGI was more than 100 µM in test [1]; more than 100 µM in [2]; more than 100 µM in test [3]; 41.7 µM in [4]; more than 100 µM in test [5]; more than 100 µM in [6]. For the same compound, the TGI in test [7], in test [8] and in test [9] was more than 100 µM in each case.

In the case of `CC(=O)OCC(OC(C)=O)C(OC(C)=O)C(OC(C)=O)C(=O)CNn1c(-c2ccccc2Cl)nc2ccccc2c1=O` (stereo unspecified), the TGI in [1], in [2], in test [3], in test [4], in test [5] and in test [6] was more than 100 µM in each case. The TGI in test [7], in test [8] and in test [9] was more than 100 µM throughout.

As for `COc1ccc(/C=C2\CCCC(C(NO)c3ccc(OC)cc3)C2=NO)cc1` (stereo unspecified), the TGI is 83.3 µM in test [1]; more than 100 µM in [2]; 80.5 µM in test [3]; more than 100 µM in [4]; more than 100 µM in [5]; more than 100 µM in [6]. Also, the results for the TGI in [7], in test [8] and in [9] were 43.1 µM, more than 100 µM and more than 100 µM, respectively.

For `CCCCN(CCCC)c1c([N+](=O)[O-])c(=O)nc2ccccn12`, the TGI in [1], in test [2], in test [3], in test [4], in [5] and in test [6] was more than 100 µM each time. Moreover, the TGI is more than 100 µM in [8] and 73.6 µM in test [9].

Turning to `Cc1cccc(C)c1NC(=O)C1C(=O)N(c2c(C)cccc2C)C(=O)/C1=N\NC(N)=S` (stereo unspecified), the TGI in [1], in test [2], in test [3], in test [4], in test [5] and in [6] was more than 100 µM each time. The TGI in test [7], in [8] and in test [9] was more than 100 µM in each case.

Take `Cc1cc(C)c(C(=O)c2no[n+]([O-])c2C(=O)c2c(C)cc(C)c(Br)c2C)c(C)c1Br`: the TGI in [1] turned out to be 29.1 µM; in test [2], 29.9 µM; in test [3], 20.2 µM; in test [4], 26.9 µM; in test [5], 38.9 µM; in test [6], 27.4 µM. Further, the TGI is 15.2 µM in test [7], 21.9 µM in [8] and 33.4 µM in [9].

With `CC1=C(C(=O)Nc2cccc(Cl)c2)C(c2ccccc2F)C(C(=O)Nc2cccc(Cl)c2)=C(C)N1`, the TGI in [1] stood at 30.4 µM; in test [2] it was 31.8 µM; in test [3], 14.7 µM; in test [4], 64.6 µM; in [5] it was 11.1 µM; in test [6], 15.5 µM. For the same compound, the TGI was 18.7 µM in [7] and 31.3 µM in [9].

Take `NCCCCNc1ccc2c(=O)[nH][nH]c(=O)c2c1`: the TGI in [1], in [2], in [3], in test [4], in [6] and in [7] was more than 100 µM in each case. The TGI in test [8] and in test [9] was more than 100 µM each time.

Take `CC[C@]1(O)C(=O)OCc2c1cc1n(c2=O)Cc2cc3c(N)cccc3nc2-1`: the TGI in test [1], in [2], in test [3], in test [4], in test [5] and in test [6] was more than 100 µM throughout. The TGI in test [7], in [8] and in test [9] was more than 100 µM in each case.

In the case of `OC1(c2ccccc2)OC(C#Cc2ccccc2)(c2ccccc2)c2ccccc21` (stereo unspecified), the TGI in [1] stood at 4.07 µM; in test [2] it was 22.7 µM; in test [3] it was 8.01 µM; in test [4], 15.4 µM; in test [5] it was 6.62 µM; in test [6], 4.38 µM. Further, the TGI in test [7] was more than 100 µM; in test [8], 3.07 µM; in test [9], 28.8 µM.

In the case of `CN1CC[C@]2(C)c3ccc(O)cc3CC3CCCC1C32C` (stereo partly specified), the TGI in test [1], in test [2], in test [3], in [5], in test [6] and in [7] was more than 100 µM each time. Further, the TGI in test [8] and in test [9] was more than 100 µM in each case.

For the compound `COC(=O)c1nc(Cl)nc(Cl)c1Cl`, the TGI in [1] is 75.3 µM; in test [2], 45.9 µM; in test [3], 32.9 µM; in [4], 38.5 µM; in test [5] it was 63.6 µM; in [6], 50.2 µM. Also, the TGI in [8] was 33.2 µM; in test [9], more than 100 µM.

`C/C=C/C=C/C=C/C=C/C(=O)O`: the TGI in test [1], in test [2], in test [3], in test [4], in test [5] and in [6] was more than 100 µM each time. Further, the TGI in [7], in [8] and in [9] was more than 100 µM in each case.

Turning to `Cc1ccc(-c2cc(-c3ccccc3)c(C#N)c(=O)n2C2OC(CO)C(O)C(O)C2O)cc1` (stereo unspecified), the TGI in test [1] was more than 100 µM; in test [2], more than 100 µM; in [3] it was 85.3 µM; in test [4], more than 100 µM; in test [5], more than 100 µM; in test [6], more than 100 µM. Also, the TGI in [7], in test [8] and in [9] was more than 100 µM each time.

Regarding `O=[N+]([O-])c1cnn(C2=CNc3ccccc3N=C2)c1`, the TGI in test [1], in test [2], in test [3], in test [6], in test [7] and in test [8] was more than 100 µM each time. In test [9], the TGI is more than 100 µM.

Turning to `CCC1=NC(CO)[C@H](c2ccccc2)O1` (stereo partly specified), the TGI in test [1], in test [2], in test [4], in [5], in test [6] and in test [8] was more than 100 µM in each case. In addition, the TGI in test [9] was more than 100 µM.

For `COC1C2C=CC(C2)[C@H]1[N+](=O)[O-]` (stereo partly specified), the TGI in test [1], in test [2], in [3], in [4], in test [6] and in test [7] was more than 100 µM in each case. The TGI in [8] and in [9] was more than 100 µM each time.
